For one assay, the target named is FGFR2 (h) (Homo sapiens, UniProt P21802). Kind of assay: FGFR2 (enzymatic assay), TR-FRET. Conditions: 0.4 μM ATP; read-out: FGFR2 pIC50 (converted). It counts as biochemical. The protocol: (§1) In a final reaction volume of 30 μL, FGFR2 (h) (150 ng/ml) was incubated with 50 mM HEPES pH 7.5, 6 mM MnCl2, 1 mM DTT, 0.1 mM Na3VO4, 0.01% Triton-X-100, 500 nM Btn-Flt3 and 0.4 μM ATP in the presence of compound (1% DMSO final). After incubation for 60 minutes at room temperature the reaction was stopped with 2.27 nM EU-anti P-Tyr, 7 mM EDTA, 31.25 nM SA-XL-665 and 0.02% BSA which was present for 60 minutes at room temperature. Time-Resolved Fluorescence Resonance Energy Transfer (TR-FRET) signal (ex340 nm. Em 620 nm, em 655 nm) was measured afterwards and results are expressed in (Relative Fluorescence Units). In this assay, the inhibitory effect of different compound concentrations (range 10 μM to 0.1 nM) was determined and used to calculate an IC50 (M) and pIC50 (−log IC50) value.
Sequence of FGFR2 (h) (P21802 22-821): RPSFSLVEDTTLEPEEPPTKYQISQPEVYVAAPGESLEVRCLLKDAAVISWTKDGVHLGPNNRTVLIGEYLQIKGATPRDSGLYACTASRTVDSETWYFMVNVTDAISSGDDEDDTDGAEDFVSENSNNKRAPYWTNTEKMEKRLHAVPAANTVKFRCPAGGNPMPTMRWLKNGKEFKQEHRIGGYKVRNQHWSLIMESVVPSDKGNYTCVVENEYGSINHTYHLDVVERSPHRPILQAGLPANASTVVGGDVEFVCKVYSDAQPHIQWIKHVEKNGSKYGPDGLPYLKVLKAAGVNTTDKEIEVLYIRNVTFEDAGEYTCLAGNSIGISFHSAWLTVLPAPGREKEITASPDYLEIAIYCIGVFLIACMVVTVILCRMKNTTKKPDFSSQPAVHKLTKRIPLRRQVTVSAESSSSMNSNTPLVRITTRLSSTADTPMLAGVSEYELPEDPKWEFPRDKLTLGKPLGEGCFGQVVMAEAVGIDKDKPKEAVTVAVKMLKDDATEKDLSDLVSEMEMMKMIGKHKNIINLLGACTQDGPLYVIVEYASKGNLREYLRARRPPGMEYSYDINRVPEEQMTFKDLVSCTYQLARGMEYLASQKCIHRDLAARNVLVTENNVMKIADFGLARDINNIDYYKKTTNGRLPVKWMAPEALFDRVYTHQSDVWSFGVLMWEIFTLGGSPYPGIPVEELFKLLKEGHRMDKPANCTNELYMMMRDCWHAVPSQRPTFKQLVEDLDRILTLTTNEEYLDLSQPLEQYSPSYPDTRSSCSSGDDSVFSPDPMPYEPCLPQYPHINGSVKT
For orientation: In TR-FRET formats the signal depends on donor and acceptor labels being close together.

The target in the next assay is KDR (h) (VEGFR2) (Homo sapiens, UniProt P35968). The assay is described as follows: KDR (VEGFR2) (enzymatic assay), TR-FRET. It counts as biochemical. Conditions: 3 μM ATP; read-out: VEGFR2 (KDR) pIC50 (converted). How it is done: KDR (VEGFR2) (Enzymatic Assay)
Sequence of KDR (h) (VEGFR2) (P35968 20-1356): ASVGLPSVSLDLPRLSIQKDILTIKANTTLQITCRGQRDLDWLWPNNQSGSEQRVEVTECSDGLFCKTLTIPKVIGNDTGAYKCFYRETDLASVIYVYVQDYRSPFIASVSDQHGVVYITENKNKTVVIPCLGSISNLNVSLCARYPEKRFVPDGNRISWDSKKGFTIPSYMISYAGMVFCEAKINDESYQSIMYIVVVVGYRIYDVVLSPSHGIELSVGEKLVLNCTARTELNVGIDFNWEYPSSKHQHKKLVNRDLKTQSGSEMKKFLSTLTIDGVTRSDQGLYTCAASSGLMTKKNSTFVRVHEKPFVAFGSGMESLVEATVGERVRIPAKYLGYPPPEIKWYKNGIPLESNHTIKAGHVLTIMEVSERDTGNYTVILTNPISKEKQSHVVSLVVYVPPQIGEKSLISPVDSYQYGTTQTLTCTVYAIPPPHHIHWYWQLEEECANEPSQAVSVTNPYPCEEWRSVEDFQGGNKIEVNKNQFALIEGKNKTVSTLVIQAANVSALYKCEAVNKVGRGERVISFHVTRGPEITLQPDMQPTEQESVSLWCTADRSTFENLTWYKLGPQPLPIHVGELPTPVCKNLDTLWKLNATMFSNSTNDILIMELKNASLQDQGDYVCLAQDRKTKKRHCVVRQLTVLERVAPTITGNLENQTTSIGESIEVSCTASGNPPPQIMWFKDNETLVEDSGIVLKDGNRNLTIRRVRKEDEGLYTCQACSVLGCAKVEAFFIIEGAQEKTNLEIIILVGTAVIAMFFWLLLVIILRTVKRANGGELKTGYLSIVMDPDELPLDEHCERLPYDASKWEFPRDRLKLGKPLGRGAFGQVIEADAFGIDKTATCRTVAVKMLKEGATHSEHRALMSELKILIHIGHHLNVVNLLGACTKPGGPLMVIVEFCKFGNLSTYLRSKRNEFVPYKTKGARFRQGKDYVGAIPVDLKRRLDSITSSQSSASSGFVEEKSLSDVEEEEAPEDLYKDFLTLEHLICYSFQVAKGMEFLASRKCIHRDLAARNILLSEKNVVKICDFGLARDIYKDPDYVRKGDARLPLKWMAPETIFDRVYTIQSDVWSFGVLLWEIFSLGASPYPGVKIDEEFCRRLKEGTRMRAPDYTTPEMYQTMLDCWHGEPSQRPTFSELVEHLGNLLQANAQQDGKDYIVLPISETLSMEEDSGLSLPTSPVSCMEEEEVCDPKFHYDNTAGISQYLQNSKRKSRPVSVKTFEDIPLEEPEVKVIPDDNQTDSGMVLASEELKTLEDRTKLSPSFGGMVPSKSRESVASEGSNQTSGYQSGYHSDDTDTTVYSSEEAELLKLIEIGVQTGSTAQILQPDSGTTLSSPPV
as §1, with “30 μL, KDR (h) (150” for “30 μL, FGFR2 (h) (150”, “Btn-Flt3 and 3 μM ATP” for “Btn-Flt3 and 0.4 μM ATP”, “incubation for 120 minutes at” for “incubation for 60 minutes at”, “expressed in RFU (Relative Fluorescence” for “expressed in (Relative Fluorescence”

Assay [1] has as its target T1, Ba/F3-Flt3-transfected cells (Homo sapiens, UniProt P36888, cells depend on it, form not given).
T1 construct: BAF3-FLT3 (MIN IL3) pIC50; other: minus IL3
T1 sequence (P36888 1-993): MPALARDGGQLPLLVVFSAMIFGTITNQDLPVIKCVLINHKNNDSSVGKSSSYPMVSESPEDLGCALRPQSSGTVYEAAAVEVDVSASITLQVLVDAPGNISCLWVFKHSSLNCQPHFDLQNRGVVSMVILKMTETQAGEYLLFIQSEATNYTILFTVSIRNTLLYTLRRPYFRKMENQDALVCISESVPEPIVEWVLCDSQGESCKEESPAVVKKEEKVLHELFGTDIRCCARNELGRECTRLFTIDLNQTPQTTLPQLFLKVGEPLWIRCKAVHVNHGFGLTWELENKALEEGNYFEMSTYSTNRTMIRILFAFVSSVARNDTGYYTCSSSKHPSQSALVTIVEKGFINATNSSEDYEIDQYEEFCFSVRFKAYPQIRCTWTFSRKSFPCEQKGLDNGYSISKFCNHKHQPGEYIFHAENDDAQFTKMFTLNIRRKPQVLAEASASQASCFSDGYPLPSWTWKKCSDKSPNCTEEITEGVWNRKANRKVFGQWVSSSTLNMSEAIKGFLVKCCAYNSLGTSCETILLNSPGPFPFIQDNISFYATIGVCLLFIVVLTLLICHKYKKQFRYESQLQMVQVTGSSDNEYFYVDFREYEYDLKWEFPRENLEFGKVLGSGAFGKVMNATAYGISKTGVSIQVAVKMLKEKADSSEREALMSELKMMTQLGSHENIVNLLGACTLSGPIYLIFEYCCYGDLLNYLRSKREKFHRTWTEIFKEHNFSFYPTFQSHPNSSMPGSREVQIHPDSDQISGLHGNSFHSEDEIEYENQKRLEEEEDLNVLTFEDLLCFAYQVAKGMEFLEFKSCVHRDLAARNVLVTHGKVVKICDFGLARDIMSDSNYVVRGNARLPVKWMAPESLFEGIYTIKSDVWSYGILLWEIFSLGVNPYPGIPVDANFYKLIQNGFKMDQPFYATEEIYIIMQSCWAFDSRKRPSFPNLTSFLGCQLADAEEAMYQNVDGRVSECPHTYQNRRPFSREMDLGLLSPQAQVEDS
Kind of assay: Ba/F3-Flt3 (minus IL3 or plus IL3) cellular proliferation assay. It counts as cell-based. To be noted: minus IL3. The protocol:
(§2) Ba/F3-Flt3 (Minus IL3 or Plus IL3) (Cellular Proliferation Assay)
(§3) In a 384 well plate, 100 nl of compound dilution in DMSO was sprayed before adding 50 μl cell culture medium (phenol red free RPMI-1640, 10% FBS, 2 mM L-Glutamine and 50 μg/ml Gentamycin) containing 20000 cells per well of Ba/F3-Flt3-transfected cells. Cells were put in an incubator at 37° C. and 5% CO2. After 24 hours, 10 μl of Alamar Blue solution (0.5 mM K3Fe(CN)6, 0.5 mM K4Fe(CN)6, 0.15 mM Resazurin and 100 mM Phosphate Buffer) was added to the wells, incubated for 4 hours at 37° C. and 5% CO2 before RFU's (Relative Fluorescence Units) (ex. 540 nm., em. 590 nm.) were measured in a fluororescence plate reader.
(§4) In this assay, the inhibitory effect of different compound concentrations (range 10 μM to 0.1 nM) was determined and used to calculate an IC50 (M) and pIC50 (−log IC50) value.
(§5) As a counterscreen the same experiment was performed in the presence of 10 ng/ml murine IL3.

Assay [2] has as its system Ba/F3-Flt3-transfected cells. The description is as above. It counts as cell-based. To be noted: 24 h; plus 10 ng/ml murine IL3 (counterscreen); read-out: BAF3_FLT3 (PLUS IL3) pIC50 (converted). The protocol: as §2, §3, §4, §5
In general terms: A counterscreen serves to expose hits that act by an unwanted route or on another target.

We go through 10 molecules from patent publication US9290478B2, “Substituted quinoxalines as FGFR kinase inhibitors” (ASTEX THERAPEUTICS LTD, priority 2010, dated 2016).

Some results are limits rather than exact numbers.

Regarding `COc1cc(OC)cc(C(CCO)c2ccc3ncc(-c4cnn(C)c4)nc3c2)c1` (stereo not shown) [Compound 22], the figures for the IC50 (on FGFR2 (h); on KDR (h) (VEGFR2); in assay [2]) were 0.126 µM, above 1 µM and above 10 µM, respectively. Moreover, in assay [1], the “BAF3-FLT3 (MIN IL3) pIC50” value is given as below 5.
The corresponding values for `COc1cc(OC)cc(C(CC(=O)NC(C)C)c2ccc3ncc(-c4cnn(C)c4)nc3c2)c1` (stereo not shown) [Compound 23] are above 1 µM, above 1 µM, above 10 µM and below 5.
In the case of `COc1cc(OC)cc(C(CC(C)(O)CNC(C)C)c2ccc3ncc(-c4cnn(C)c4)nc3c2)c1.Cl` (stereo not shown) [Compound 25], the IC50 at FGFR2 (h) is around 1 µM; on KDR (h) (VEGFR2), 0.562 µM; in assay [2], above 10 µM. Besides, the “BAF3-FLT3 (MIN IL3) pIC50” value in assay [1] was below 5.
The corresponding values for `Cn1cc(-c2cnc3ccc(C(O)c4ccccc4)cc3n2)cn1` (stereo not shown) [Compound 28] are 2.63 µM, 1.58 µM, above 10 µM and below 5.
For the molecule `COc1cc(OC)cc(C(CCNC(C)C)c2ccc3ncc(-c4cnn(C)c4)nc3c2)c1.Cl` (stereo not shown) [Compound 29, {3-(3,5-Dimethoxy-phenyl)-3-[3-(1-methyl-1H-pyrazol-4-yl)-quinoxalin-6-yl]-propyl}-isopropyl-amine], the figures for the IC50 (at FGFR2 (h); at KDR (h) (VEGFR2); in assay [2]) were 0.0257 µM, above 1 µM and above 10 µM, respectively. In addition, in assay [1], the “BAF3-FLT3 (MIN IL3) pIC50” value is below 5.
The matching figures for `COc1cc(OC)cc(C2(c3ccc4ncc(-c5cnn(C)c5)nc4c3)CC2)c1` [Compound 30]: 0.0501 µM, 0.501 µM, above 10 µM and below 5.
On to `COc1cc(OC)cc(C(CCNCC(F)(F)F)c2ccc3ncc(-c4cnn(C)c4)nc3c2)c1.Cl` (stereo not shown) [Compound 33], for which the IC50 on FGFR2 (h) was 0.38 µM; on KDR (h) (VEGFR2), above 1 µM; in assay [2], above 10 µM. Moreover, the “BAF3-FLT3 (MIN IL3) pIC50” value in assay [1] is recorded as below 5.
The corresponding values for `COc1cc(OC)cc(/C(=C/CN(C)C)c2ccc3ncc(-c4cnn(C)c4)nc3c2)c1` [Compound 34] are 0.17 µM, above 1 µM, above 10 µM and below 5.
The corresponding values for `CN(C)CCC(c1ccccc1)c1ccc2ncc(-c3cnn(C)c3)nc2c1` (stereo not shown) [Compound 35] are above 1 µM, above 1 µM, above 10 µM and below 5.
Turning to `COc1cc(OC)cc(C(CCCN)c2ccc3ncc(-c4cnn(C)c4)nc3c2)c1.Cl` (stereo not shown) [Compound 40], the results for the IC50 (at FGFR2 (h); at KDR (h) (VEGFR2); in assay [2]) were 0.427 µM, above 1 µM and above 10 µM, respectively. The “BAF3-FLT3 (MIN IL3) pIC50” value in assay [1] was below 5.
